Measured values taken from PMC5469758, “Identification of an in vivo orally active dual-binding protein-protein interaction inhibitor targeting TNFα through combined in silico/in vitro/in vivo screening” (Scientific Reports, 2017).
Where two headings read alike, the source gives them in different places.

Columns and labels:
TNFα [1] = target: T1, TNFα (Homo sapiens, UniProt P01375); test: Surface Acoustic Wave (SAW) biosensor gravimetric measurement of dissociation constants; type: binding; details: for Kd: two-site binding model, room temperature
T1 construct: purchased R&D Systems
Protocol: Gravimetric measurements were performed using surface acoustic wave (SAW) sensors. TNFα solutions were prepared by diluting 10 µg of lyophilized TNFα in 1 ml of PBS. They were kept in the freezer (at −18 °C) and put at room temperature just before their further grafting onto the gold surface area of the SAW sensor.
Phase shift variations (ΔΦ) versus compound concentration (C) were fitted using equation 1 ΔΦ=Φsat×C/Kd+C where Φsat represents the maximum sensor’s response to the compound binding and Kd represents the equilibrium dissociation constant.
In the case of a two-site binding, equation 2 was used for fitting:2 ΔΦ=Φsat,1×C/Kd1+C+Φsat,2×C/Kd2+C
where Φsat1 and Φsat2 are related to the maximum sensor’s response for each binding site and Kd1 and Kd2 are their respective dissociation constants.

TNFα [2] = target: T1, TNFα; test: Intrinsic tryptophan fluorescence of TNFα; type: binding; details: 0.5 μM TNFα; 20–100 µM range
Protocol: All samples were brought to 10 mM phosphate buffer, 0.05% Tween20, 1% DMSO. Fluorescence readings were made with a Quantamaster QM4CW spectrofluorimeter (Photon Technology International), by exciting TNFα at 290 nm and measuring the emission peaks at 322 nm. Compound 1 inner filter effects were corrected using absorbance measurements of compound alone solutions at 290 nm and 322 nm.

TNFα/TNFRI = target: T2, TNFα/TNFRI (Homo sapiens, UniProt P01375); test: TNFα-TNFRI binding ELISA; type: biochemical
T2 construct: purchased R&D Systems
Protocol: (§1) Microtiter plates were coated with 12.5 ng of TNFRI or TNFRII in 125 μl of PBS per well at 37 °C. The wells were washed, blocked with PBS/BSA 2% for three hours and washed as before. Serial dilutions of compounds were mixed with a fixed quantity of TNFα in PBS/BSA 1% and incubated two hours at 37 °C. 125 μl of the mix were added to the wells and plates were incubated overnight at 4 °C. Wells were washed incubated with 37.5 ng of TNFα biotinylated antibody in 125 μl of PBS/BSA 1% for two hours at 37 °C. Wells were washed and incubated with avidin-HRP (1:500) in 125 μl of PBS/BSA 1% for 30 minutes at 37 °C, 5% CO2. After washing, TMB solution was added to wells, quenched with 63 μl of 1 M H2SO4 solution. Absorbance was measured at 450 nm.

TNFα/TNFRII = target: T3, TNFα/TNFRII (Homo sapiens, UniProt P01375); test: TNFα-TNFRII binding ELISA; type: biochemical
T3 construct: purchased R&D Systems
Protocol: as §1

[3] = test system: human TNFα induced apoptosis on the L929 cell line; test: Neutralization of human TNFα induced apoptosis in L929 cells (MTT); type: cell-based; details: human TNFα, read-out: IC50, inhibition of TNFα induced apoptosis
Protocol: (§2) 80% confluent L929 cells were plated in flat bottom plates at 4 × 10^5 cells per well in 100 μl of DMEM medium containing 10% FBS, 2 mM L-Glutamine, 100 U/ml Penicillin − 100 μg/ml Streptomycin and incubated for one night at 37 °C, 5% CO2. TNFα or TNFβ (150 pg/ml), Actinomycin D (4 μg/ml) and the compounds at different concentrations (ranging from 100 μM to 0.8 μM) were mixed in 150 μl DMEM medium 1% FBS, 2 mM L-Glutamine, 100 U/ml Penicillin−100 μg/ml Streptomycin in U-bottom plates. After two hours incubation at 37 °C, 5% CO2, 100 μl of the mix was added to the plated cells and incubated at 37 °C, 5% CO2 for 24 hours. Supernatants were discarded and 100 μl of MTT at 0.5 mg/ml were added to wells. After two hours, supernatants were discarded and 200 μl of DMSO were then added. Plates were read at 570 nm with a spectrophotometer providing the optical density (OD) of each well. The percentage of neutralization of TNFα by a compound was calculated using equation 3:3 %Neutra=ODcompound−ODTNFα/ODcells−ODTNFα×100
(§3) An IC50 could be computed from the percentage of neutralization for each compound.

[4] = test system: TNFα induced NF-κB activation in HEK cells; test: HEK-Blue TNFα NF-κB secreted embryonic alkaline phosphatase reporter assay; type: cell-based, human; details: Homo sapiens, HEK293; HEK cell line expressing TNFRI; read-out: IC50, TNFα signaling NF-κB reporter
Protocol: 80% confluent HEK-Blue™ TNFα were plated in flat bottom plates at 5 × 10^4 per well in 100 μl of DMEM containing 2 mM L-Glutamine, 100 U/ml Penicillin − 100 μg/ml Streptomycin and incubated at 37 °C, 5% CO2. Serial dilutions of compounds (ranging from 100 μM to 0.8 μM) were mixed with 400 pg/ml of human TNFα in DMEM containing 2% of FBS, 2 mM L-Glutamine, 100 U/ml Penicillin−100 μg/ml Streptomycin in U-bottom plates. After two hours of incubation at 37 °C, 5% CO2, 100 μl of the mix was added to the plated cells and incubated 24 hours at 37 °C, 5% CO2. 20 μl of supernatants were incubated for 3 hours with 180 μl of QUANTI-Blue™ to reveal secretion of phosphatase alcaline and plates were read at 620 nm with a spectrophotometer providing the optical density (OD).

[5] = test system: TNFβ induced apoptosis in L929 cell line; test: Neutralization of TNFβ induced apoptosis in L929 cells (MTT); type: cell-based
Protocol: as §2, §3

[6] = test system: murine TNFα-induced apoptosis on L929 cells; test: Neutralization of murine TNFα induced apoptosis in L929 cells; type: cell-based; details: Mus musculus
Protocol: as §2, §3

[7] = test system: CXCL1 secretion by L929 cells; test: CXCL1 secretion in L929 supernatants after TNFα stimulation (ELISA); type: cell-based, murine; details: TNFα (5 ng/ml)
Protocol: Cells were plated at 2.5 × 10^5 cells/well in 24-well plates and treated as indicated. Eight hours later, supernatants were recovered and kept at −20 °C for later use. The concentration of murine CXCL1 was measured in supernatants with a dosage ELISA kit obtained from R&D Systems (Lille, France) according to the manufacter’s procedures.

caspase 3 activation = test: Caspase-Glo 3 activation assay; type: cell-based; details: dose dependent
Protocol: (§4) Caspases 3 and 8 activation was determined using Caspase-Glo® 3 and Caspase-Glo-8® assays kits (Promega) according to the manufacter’s procedures. After 8 hours of treatment, plates were equilibrated at room temperature. 100 μl Caspase-Glo 3® and Caspase-Glo 8® reagent were added to each well. Luminescence was read on a FLUOstar OPTIMA reader.

caspase 8 activation = test: Caspase-Glo 8 activation assay; type: cell-based; details: dose dependent
Protocol: as §4

[8] = test system: IκB kinases (IKK), JNK1, p38 and Syk, caspase 3, caspase 8; test: Direct inhibition of kinases and caspases related to the TNFα pathway (CEREP/Eurofins panel); type: biochemical; details: at 1 µM
Protocol: (§5) Kinases and caspases activities in presence of 1 µM of compound 1 were carried out by CEREP/Eurofins (Celle-Lévescault). The activity of compound 1 on the different kinases and caspases was compared to control values. Data are expressed as percentages of inhibition of control values.

IKKα = target: T4, IKKα (Homo sapiens, UniProt O15111); test: CEREP/Eurofins kinase inhibition, IKKα; type: biochemical; details: read-out: % Inhibition of Control Values
T4 construct: purchased CEREP/Eurofins
Protocol: as §5

IKKβ = target: T5, IKKβ (Homo sapiens, UniProt O14920); test: CEREP/Eurofins kinase inhibition, IKKβ; type: biochemical; details: read-out: % Inhibition of Control Values
T5 construct: purchased CEREP/Eurofins
Protocol: as §5

IKKε = target: T6, IKKε (Homo sapiens, UniProt Q14164); test: CEREP/Eurofins kinase inhibition, IKKε; type: biochemical; details: read-out: % Inhibition of Control Values
T6 construct: purchased CEREP/Eurofins
Protocol: as §5

JNK1 = target: T7, JNK1 (Homo sapiens, UniProt P45983); test: CEREP/Eurofins kinase inhibition, JNK1; type: biochemical; details: JNK1, 1 μM; read-out: % Inhibition of Control Values
T7 construct: purchased CEREP/Eurofins
Protocol: as §5

p38α kinase = target: T8, p38α kinase (Homo sapiens, UniProt Q16539); test: CEREP/Eurofins kinase inhibition, p38α; type: biochemical; details: read-out: % Inhibition of Control Values
T8 construct: purchased CEREP/Eurofins
Protocol: as §5

p38γ kinase = target: T9, p38γ kinase (Homo sapiens, UniProt P53778); test: CEREP/Eurofins kinase inhibition, p38γ; type: biochemical; details: read-out: % Inhibition of Control Values
T9 construct: purchased CEREP/Eurofins
Protocol: as §5

p38δ kinase = target: T10, p38δ kinase (Homo sapiens, UniProt O15264); test: CEREP/Eurofins kinase inhibition, p38δ; type: biochemical; details: read-out: % Inhibition of Control Values
T10 construct: purchased CEREP/Eurofins
Protocol: as §5

Syk = target: T11, Syk (Homo sapiens, UniProt P43405); test: CEREP/Eurofins kinase inhibition, Syk; type: biochemical; details: read-out: % Inhibition of Control Values
T11 construct: purchased CEREP/Eurofins
Protocol: as §5

Caspase 3 = target: T12, Caspase 3 (Homo sapiens, UniProt P42574); test: CEREP/Eurofins caspase inhibition, Caspase 3; type: biochemical; details: Caspase 3, 1 μM; read-out: % Inhibition of Control Values
T12 construct: purchased CEREP/Eurofins
Protocol: as §5

Caspase 8 = target: T13, Caspase 8 (Homo sapiens, UniProt Q14790); test: CEREP/Eurofins caspase inhibition, Caspase 8; type: biochemical; details: Caspase 8, 1 μM; read-out: % Inhibition of Control Values
T13 construct: purchased CEREP/Eurofins
Protocol: as §5

Balb/C mice = test: LPS/D-Galactosamine induced lethal shock (TNFα-dependent hepatic shock model); type: in vivo; details: for expression of cleaved caspase 3 in liver (immunohistochemistry) / liver damage and hemorrhage (H&E histopathology): livers eight hours after LPS/D-Galactosamine
Protocol: 7 weeks-old Balb/C mice were force-fed with 100 μl of a solution of DMSO containing various doses of compound 1 (5 mg down to 0.5 mg) eight hours before receiving an intraperitoneal injection of 200 μl of PBS containing 0.1 μg of LPS and 20 mg of D-Galactosamine. A control group (DMSO) was force-fed with 100 μl of a solution of DMSO alone eight hours before to be injected with 200 μl of LPS/D-Galactosamine solution. Mice survival was monitored for 48 hours after the injection of LPS/D-Galactosamine.
7 weeks-old Balb/C mice were forced-fed with a solution of DMSO containing 5 mg of compound 1 eight hours before receiving an intraperitoneal injection of 200 μl of PBS containing 0.1 μg of LPS and 20 mg of D-Galactosamine. Eight hours after LPS/D-Galactosamine injection, mice were sacrificed by cervical dislocation and livers were harvested, fixed in 4% formalin and embedded in paraffin. […] Slides were scanned with a slide scanner (Perkin Elmer) and analyzed with Pannoramic viewer (3D HISTECH).
7 weeks-old Balb/C mice were forced-fed with a solution of DMSO containing 5 mg of compound 1 eight hours before receiving an intraperitoneal injection of 200 μl of PBS containing 0.1 μg of LPS and 20 mg of D-Galactosamine. Three hours after LPS/D-Galactosamine injection, mice were anesthetized with ketamine/xylazine to recover blood by cardiac puncture. Sera were kept at −80 °C until assay.
TNFα in serum was quantified using U-CyTech biosciences kits (Utrecht, The Netherlands) according to manufacturer’s procedures.
7 weeks-old Balb/C mice were forced-fed with a solution of DMSO containing 5 mg of compound 1 eight hours before receiving an intraperitoneal injection of 200 μl of PBS containing 0.1 μg of LPS and 20 mg of D-Galactosamine. Eight hours after, mice were anesthetized by an injection of ketamine/xylazine to recover blood by cardiac puncture. Sera were kept at −80 °C until assay. Quantification of AST/ALT was performed using Architec ci 8200 analyser (Abbott) with reagent kits from Abbott.

[9] = Solubility in aqueous solvents; type: physicochemical
Bioavailability = type: in vivo; details: mouse, oral

T1 sequence (P01375 77-233 limits assumed): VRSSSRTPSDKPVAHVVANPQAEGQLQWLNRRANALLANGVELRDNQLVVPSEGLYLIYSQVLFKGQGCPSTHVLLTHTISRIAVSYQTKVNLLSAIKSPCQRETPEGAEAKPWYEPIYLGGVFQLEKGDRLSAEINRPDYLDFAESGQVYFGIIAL
T10 sequence (O15264 whole entry): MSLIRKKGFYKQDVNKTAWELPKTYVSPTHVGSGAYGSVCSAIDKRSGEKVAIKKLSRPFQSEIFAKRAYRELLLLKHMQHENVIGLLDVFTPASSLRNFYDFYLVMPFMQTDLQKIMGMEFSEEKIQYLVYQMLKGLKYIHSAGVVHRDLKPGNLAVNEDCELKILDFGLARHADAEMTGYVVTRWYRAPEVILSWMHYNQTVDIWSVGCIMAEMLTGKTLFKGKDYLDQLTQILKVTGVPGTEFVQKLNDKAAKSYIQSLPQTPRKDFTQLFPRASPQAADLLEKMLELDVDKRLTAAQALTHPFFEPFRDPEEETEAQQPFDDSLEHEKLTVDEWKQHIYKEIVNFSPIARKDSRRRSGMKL
T12 sequence (P42574 29-175 limits assumed): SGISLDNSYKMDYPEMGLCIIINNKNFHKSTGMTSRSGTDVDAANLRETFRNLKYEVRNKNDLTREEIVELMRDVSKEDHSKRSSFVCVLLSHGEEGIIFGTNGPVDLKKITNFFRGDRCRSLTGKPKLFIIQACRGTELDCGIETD
T13 sequence (Q14790 217-374 limits assumed): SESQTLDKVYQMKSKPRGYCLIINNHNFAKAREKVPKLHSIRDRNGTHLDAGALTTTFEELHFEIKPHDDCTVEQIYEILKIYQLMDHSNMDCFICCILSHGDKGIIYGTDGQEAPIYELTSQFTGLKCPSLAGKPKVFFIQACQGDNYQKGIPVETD
T7 sequence (P45983 whole entry): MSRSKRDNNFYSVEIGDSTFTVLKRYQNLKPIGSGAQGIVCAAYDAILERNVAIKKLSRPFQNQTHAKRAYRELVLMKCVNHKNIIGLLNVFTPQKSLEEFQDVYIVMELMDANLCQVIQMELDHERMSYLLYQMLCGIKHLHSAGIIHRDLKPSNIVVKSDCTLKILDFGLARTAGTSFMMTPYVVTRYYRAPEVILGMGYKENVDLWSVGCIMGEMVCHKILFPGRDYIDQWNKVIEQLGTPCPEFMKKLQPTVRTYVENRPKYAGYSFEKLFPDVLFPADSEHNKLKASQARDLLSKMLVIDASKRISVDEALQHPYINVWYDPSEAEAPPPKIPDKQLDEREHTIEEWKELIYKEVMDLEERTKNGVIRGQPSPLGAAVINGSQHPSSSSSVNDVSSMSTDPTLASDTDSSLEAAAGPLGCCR
T5 sequence (O14920 whole entry): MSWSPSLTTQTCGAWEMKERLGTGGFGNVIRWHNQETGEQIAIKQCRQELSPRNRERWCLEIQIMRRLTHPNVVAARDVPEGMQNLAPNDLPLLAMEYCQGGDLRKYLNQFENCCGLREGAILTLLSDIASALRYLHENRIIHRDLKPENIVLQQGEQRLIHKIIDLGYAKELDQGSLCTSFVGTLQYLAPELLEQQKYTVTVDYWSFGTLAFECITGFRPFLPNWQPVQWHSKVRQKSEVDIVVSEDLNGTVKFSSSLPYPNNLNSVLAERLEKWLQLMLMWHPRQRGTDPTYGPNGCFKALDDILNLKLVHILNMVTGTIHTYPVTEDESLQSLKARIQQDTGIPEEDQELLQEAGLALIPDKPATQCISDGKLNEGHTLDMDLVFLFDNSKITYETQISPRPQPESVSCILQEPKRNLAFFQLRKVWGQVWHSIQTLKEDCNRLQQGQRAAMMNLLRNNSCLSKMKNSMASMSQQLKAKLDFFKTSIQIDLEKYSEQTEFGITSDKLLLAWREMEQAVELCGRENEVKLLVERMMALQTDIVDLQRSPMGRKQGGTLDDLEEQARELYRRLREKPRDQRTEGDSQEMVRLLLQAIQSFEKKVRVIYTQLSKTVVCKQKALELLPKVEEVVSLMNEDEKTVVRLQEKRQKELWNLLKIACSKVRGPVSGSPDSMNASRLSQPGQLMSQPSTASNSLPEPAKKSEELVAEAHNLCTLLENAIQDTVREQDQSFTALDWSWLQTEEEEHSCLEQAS
T4 sequence (O15111 whole entry): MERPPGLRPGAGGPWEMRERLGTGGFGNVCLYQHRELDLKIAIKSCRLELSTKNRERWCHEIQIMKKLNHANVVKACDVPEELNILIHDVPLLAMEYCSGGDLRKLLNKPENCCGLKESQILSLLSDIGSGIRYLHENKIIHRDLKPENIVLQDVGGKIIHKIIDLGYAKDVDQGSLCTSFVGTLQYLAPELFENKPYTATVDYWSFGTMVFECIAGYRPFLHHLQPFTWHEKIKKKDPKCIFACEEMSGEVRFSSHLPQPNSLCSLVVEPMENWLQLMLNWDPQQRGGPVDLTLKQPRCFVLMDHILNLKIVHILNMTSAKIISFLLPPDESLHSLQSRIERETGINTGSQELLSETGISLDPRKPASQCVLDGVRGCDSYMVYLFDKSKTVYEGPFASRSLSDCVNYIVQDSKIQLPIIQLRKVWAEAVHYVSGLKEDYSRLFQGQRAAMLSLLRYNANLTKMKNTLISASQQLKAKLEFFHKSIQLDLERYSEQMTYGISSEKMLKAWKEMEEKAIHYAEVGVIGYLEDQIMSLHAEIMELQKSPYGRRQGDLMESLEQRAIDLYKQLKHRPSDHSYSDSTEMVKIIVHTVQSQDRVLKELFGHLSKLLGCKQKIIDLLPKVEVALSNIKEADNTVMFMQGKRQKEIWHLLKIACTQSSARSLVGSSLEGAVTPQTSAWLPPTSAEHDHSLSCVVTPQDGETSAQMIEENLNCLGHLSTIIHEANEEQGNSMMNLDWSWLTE
T9 sequence (P53778 whole entry): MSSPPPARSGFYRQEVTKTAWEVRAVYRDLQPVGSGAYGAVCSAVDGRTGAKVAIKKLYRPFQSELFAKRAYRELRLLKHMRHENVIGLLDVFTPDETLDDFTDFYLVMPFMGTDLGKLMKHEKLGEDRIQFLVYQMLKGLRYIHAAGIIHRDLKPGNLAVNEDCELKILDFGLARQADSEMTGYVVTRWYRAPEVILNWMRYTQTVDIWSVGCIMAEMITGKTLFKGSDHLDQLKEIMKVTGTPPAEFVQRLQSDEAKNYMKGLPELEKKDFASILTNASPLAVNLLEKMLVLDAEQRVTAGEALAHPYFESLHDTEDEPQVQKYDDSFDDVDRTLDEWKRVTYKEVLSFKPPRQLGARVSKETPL
T3 sequence (P01375 77-233 limits assumed): as the sequence (P01375 77-233 limits assumed) above
T2 sequence (P01375 77-233 limits assumed): as above
T8 sequence (Q16539 whole entry): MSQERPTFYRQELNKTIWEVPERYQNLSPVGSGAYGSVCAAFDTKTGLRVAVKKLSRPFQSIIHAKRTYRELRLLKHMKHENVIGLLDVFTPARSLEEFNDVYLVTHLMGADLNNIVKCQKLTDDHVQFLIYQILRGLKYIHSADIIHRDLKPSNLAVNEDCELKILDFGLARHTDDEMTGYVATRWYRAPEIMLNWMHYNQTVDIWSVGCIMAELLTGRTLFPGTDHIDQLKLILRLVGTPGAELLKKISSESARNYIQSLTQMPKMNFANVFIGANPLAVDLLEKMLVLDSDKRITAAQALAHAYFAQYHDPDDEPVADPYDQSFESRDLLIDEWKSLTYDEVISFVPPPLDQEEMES
T6 sequence (Q14164 whole entry): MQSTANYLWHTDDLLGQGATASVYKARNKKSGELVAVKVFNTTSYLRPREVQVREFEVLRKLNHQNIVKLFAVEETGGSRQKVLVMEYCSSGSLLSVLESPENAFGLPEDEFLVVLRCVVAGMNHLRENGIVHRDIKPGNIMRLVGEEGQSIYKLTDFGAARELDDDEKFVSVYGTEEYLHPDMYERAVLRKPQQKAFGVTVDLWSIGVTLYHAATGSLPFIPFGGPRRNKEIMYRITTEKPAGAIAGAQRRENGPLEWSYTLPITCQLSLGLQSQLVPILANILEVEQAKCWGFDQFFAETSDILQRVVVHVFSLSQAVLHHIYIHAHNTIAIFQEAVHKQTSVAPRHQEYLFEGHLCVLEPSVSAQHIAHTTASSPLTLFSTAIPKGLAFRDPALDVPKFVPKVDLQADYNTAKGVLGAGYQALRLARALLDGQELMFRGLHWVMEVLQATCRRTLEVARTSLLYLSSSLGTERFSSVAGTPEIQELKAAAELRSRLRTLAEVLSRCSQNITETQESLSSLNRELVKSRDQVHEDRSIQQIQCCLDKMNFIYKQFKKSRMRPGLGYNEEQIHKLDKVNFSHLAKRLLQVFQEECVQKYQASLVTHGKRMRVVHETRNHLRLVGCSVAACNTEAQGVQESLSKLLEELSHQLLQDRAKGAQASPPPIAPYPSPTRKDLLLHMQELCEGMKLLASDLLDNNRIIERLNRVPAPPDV

## Cc1c(Cl)cccc1N(CC(=O)N1CCN(Cc2ccccc2)CC1)S(=O)(=O)c1ccccc1 [Compound 1]
TNFα [1]; from Kd1
  ligand efficiency LE1: 0.22
TNFα [1]; from Kd2
  ligand efficiency LE2: 0.37
TNFα [1]; read-out: Kd1 of TNFα/compound 1 complex
  Kd: 4.79 ± 1.12 µM
TNFα [1]; read-out: Kd2 of TNFα/compound 1 complex
  Kd: 0.00231 ± 0.00103 µM
TNFα [2]
  modification of intrinsic tryptophan fluorescence of TNFα: dose dependent manner
TNFα/TNFRI
  IC50: 37 µM
TNFα/TNFRII
  IC50: 31 µM
[3]; L929, L929 cell line
  IC50: 12 µM
[3]; L929 cell line
  IC50: ~10 µM
[4]
  IC50: 10 µM
[5]; TNFβ, at 100 μM
  maximal survival: 40%
[5]; read-out: IC50, inhibition of TNFβ induced apoptosis
  IC50: 28 µM
[6]
  IC50: ~10 µM
[7]
  CXCL1 in supernatants: significantly less CXCL1
Caspase 3 activation
  activation of caspase 3: blocked the activation
Caspase 8 activation
  activation of caspase 8: blocked the activation
[8]
  effect on kinases and caspases related to the TNFα pathway: no significant effect
IKKα
  inhibition at 1 µM: 3.2%
IKKβ
  inhibition at 1 µM: 10.3%
IKKε
  inhibition at 1 µM: 7.3%
JNK1
  inhibition at 1 µM: -3%
p38α kinase
  inhibition at 1 µM: 1.5%
p38γ kinase
  inhibition at 1 µM: -11%
p38δ kinase
  inhibition at 1 µM: -1.8%
Syk
  inhibition at 1 µM: -6.9%
Caspase 3
  inhibition at 1 µM: -1.8%
Caspase 8
  inhibition at 1 µM: -7.3%
Balb/C mice
  expression of cleaved caspase 3 in liver (immunohistochemistry): reduced expression of cleaved caspase 3
  liver damage and hemorrhage (H&E histopathology): reduced liver damage and hemorrhage
Balb/C mice; oral 5 mg per mouse eight hours before shock
  mice survival / protection from shock: fully protective effect
Balb/C mice; oral 5 mg, eight hours after shock
  mice serum level of AST/ALT: diminished
Balb/C mice; oral 5 mg, three hours after shock
  mice serum level of TNFα: did not affect
[9]
  solubility in aqueous solvents: moderate solubility
Bioavailability
  bioavailability: low bioavailability

## etanercept
Balb/C mice
  expression of cleaved caspase 3 in liver (immunohistochemistry): reduced expression of cleaved caspase 3
  liver damage and hemorrhage (H&E histopathology): reduced liver damage and hemorrhage
